Reference: ChEMBL document CHEMBL5036349, “Development of potent dual PDK1/AurA kinase inhibitors for cancer therapy: Lead-optimization, structural insights, and ADME-Tox profile” (Eur J Med Chem, 2021)
Active and inactive are the calls of the source. No cut-off for these calls is given here.

Experiments:
[1] = target: 3-phosphoinositide-dependent protein kinase 1 (Homo sapiens) (UniProt O15530); assay: Modulation in PDK-1 phosphorylation in human SK-N-MC cell at 1 uM measured after 30 min by Western blot analysis
Chain of 3-phosphoinositide-dependent protein kinase 1 (Homo sapiens) (O15530 whole entry, looked up): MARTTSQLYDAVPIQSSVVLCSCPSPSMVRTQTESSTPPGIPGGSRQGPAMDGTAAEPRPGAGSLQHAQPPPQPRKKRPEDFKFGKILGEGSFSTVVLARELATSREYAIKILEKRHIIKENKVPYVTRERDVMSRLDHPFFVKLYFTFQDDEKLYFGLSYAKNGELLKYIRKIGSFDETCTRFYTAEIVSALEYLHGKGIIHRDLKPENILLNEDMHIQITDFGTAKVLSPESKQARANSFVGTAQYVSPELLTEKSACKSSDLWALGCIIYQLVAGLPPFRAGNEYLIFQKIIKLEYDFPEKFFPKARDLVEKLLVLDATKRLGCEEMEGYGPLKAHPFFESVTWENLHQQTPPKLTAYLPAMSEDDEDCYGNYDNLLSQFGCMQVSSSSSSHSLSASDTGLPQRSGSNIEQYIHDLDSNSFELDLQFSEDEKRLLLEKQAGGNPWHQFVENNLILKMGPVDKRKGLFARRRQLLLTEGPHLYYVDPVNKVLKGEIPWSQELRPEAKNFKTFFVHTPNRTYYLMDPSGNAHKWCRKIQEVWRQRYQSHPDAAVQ

SK-N-MC [2] = assay: Upregulation of Cdc2 protein expression level in human SK-N-MC cell at 1 uM incubated for 2 hrs by western blot analysis; assay type: functional, tissue-based
HCT-116 = assay: Anticlonogenic activity against human HCT-116 cells assessed as reduction of cell survival at 0.5 to 20 uM measured after 10 days by SRB staining clonogenic survival assay; assay type: functional, cell-based; conditions: dose 0.5-20 µM, time 10.0 day
[3] = Cytotoxicity against human TC71 cells at 30 uM assessed as cell proliferation rate measured after 72 hrs by MTT assay relative to control; assay type: functional; conditions: TC-71
[4] = Drug uptake in human […] cell at 1.5 uM measured with in 5 min by UPLC-MS/MS analysis; assay type: ADME, tissue-based
SK-N-MC [5] = assay: Cytotoxicity against human SK-N-MC cells at 30 uM assessed as cell proliferation rate measured after 72 hrs by MTT assay relative to control; assay type: functional

SMILES: O=C1Nc2ccc(NC(=O)[C@H](NC(=O)c3cccn(Cc4ccc(F)c(F)c4)c3=O)c3ccccc3)cc2/C1=C/c1cnc[nH]1 (stereo in doubt)
- Activity [1]: inactive
- Activity (SK-N-MC [2]): Active
- Activity (HCT-116): Dose-Dependent Effect
- Emax at 30 µM [3]: 60%
- Drug uptake [4]: 100 ng/mL
- Emax at 30 µM (SK-N-MC [5]): 75%
